According to patent US20230183239A1, “ECTONUCLEOTIDE PYROPHOSPHATASE-PHOSPHODIESTERASE 1 (ENPP-1) INHIBITORS AND USES THEREOF” (AbbVie Inc., priority 2017, published 2023):

Target: T1, ENPP1 (Homo sapiens, UniProt P22413)
T1 sequence (P22413 1-925): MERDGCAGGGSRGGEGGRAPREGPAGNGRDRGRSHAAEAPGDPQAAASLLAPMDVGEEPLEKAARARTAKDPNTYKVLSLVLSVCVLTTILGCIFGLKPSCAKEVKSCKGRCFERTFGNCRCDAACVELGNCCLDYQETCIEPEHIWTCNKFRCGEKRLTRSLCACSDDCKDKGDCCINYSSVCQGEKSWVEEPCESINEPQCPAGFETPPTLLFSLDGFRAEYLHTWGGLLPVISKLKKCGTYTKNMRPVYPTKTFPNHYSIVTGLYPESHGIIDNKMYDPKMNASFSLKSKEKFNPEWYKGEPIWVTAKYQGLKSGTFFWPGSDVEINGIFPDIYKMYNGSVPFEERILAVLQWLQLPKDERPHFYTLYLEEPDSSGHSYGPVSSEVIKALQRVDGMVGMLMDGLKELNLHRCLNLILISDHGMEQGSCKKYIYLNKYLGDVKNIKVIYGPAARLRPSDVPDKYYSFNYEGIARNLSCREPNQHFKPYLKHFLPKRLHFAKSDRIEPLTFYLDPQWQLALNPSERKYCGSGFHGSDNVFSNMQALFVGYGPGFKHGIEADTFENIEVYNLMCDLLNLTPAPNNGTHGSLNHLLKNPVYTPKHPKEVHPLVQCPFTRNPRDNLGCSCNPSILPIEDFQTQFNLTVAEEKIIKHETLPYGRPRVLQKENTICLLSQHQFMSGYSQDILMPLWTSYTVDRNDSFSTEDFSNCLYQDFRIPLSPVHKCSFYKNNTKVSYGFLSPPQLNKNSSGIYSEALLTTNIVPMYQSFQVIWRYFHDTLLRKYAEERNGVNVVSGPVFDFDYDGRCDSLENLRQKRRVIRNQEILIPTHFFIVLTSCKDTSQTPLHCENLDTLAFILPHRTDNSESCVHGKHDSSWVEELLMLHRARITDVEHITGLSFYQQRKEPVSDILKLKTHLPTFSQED
Test: Indirect quantitation of 2',3'-cGAMP hydrolysis (AMP-Glo Assay kit)
Type: biochemical
Details: cGAMP substrate; Ki from IC50 by Cheng-Prusoff; read-out: ENPP1 Inhibition -cGAMP: Ki

Row | SMILES | Ki [nM]
1 | CNC(=O)c1ccc2c(N3CCC(CCNS(N)(=O)=O)CC3)ncnc2c1 [Example 163, N-methyl-4-(4-(2-(sulfamoylamino)ethyl)piperidin-1-yl)quinazoline-7-carboxamide] | > 1000
2 | NS(=O)(=O)NCCC1CCN(c2ncnc3c2CCN(Cc2ccccc2)C3)CC1 [Example 233, N-(2-(1-(7-benzyl-5,6,7,8-tetrahydropyrido[3,4-d]pyrimidin-4-yl)piperidin-4-yl)ethyl)sulfamide] | > 1000
3 | COc1ccc2c(Oc3ccc(N(Cc4ccccc4)S(N)(=O)=O)cc3)ccnc2c1 [Example 309, N-benzyl-N-(4-((7-methoxyquinolin-4-yl)oxy)phenyl)sulfamide] | 100 to 1000
4 | COc1ccc(S(=O)(=O)N2CCN(CCNS(N)(=O)=O)CC2)cc1OC [Example 152, N-(2-(4-((3,4-dimethoxyphenyl)sulfonyl)piperazin-1-yl)ethyl)sulfamide] | > 1000
5 | COc1cc2ncnc(OCc3ccc(NS(N)(=O)=O)cc3)c2cc1OC [Example 179, N-(4-(((6,7-dimethoxyquinazolin-4-yl)oxy)methyl)phenyl)sulfamide] | > 1000
6 | COc1cc2nccc(C(=O)N3CCC(CNS(N)(=O)=O)CC3)c2cc1OC [Example 178, N-((1-(6,7-dimethoxyquinoline-4-carbonyl)piperidin-4-yl)methyl)sulfamide] | > 1000
7 | COc1cc2nccc(N3CCC4(CCNC4=O)CC3)c2cc1OC [Example 187, 8-(6,7-dimethoxyquinolin-4-yl)-2,8-diazaspiro[4.5]decan-1-one] | > 1000
8 | COc1cc2nccc(N3CCC(CCNS(=O)(=O)NCC(F)(F)F)CC3)c2cc1OC [Example 177, 2-(1-(6,7-dimethoxyquinolin-4-yl)piperidin-4-yl)ethan-1-amino(N-trifluoroethyl) sulfonamide] | > 1000
9 | COc1cc2ncnc(Nc3ccc(N4CCNS4(=O)=O)cc3)c2cc1OC [Example 243, 2-(4-((6,7-dimethoxyquinazolin-4-yl)amino)phenyl)-1,2,5-thiadiazolidine 1,1-dioxide] | > 1000
10 | CCNS(=O)(=O)NCCC1CCN(c2ncnc3cc(OC)c(OC)cc23)CC1 [Example 139, 2-(1-(6,7-dimethoxyquinazolin-4-yl)piperidin-4-yl)ethan-1-amino(N-ethyl)sulfonamide] | > 1000
11 | COc1cc2ncnc(N3CCC(CCN(C)C)CC3)c2cc1OC [Example 115, 2-(1-(6,7-dimethoxyquinazolin-4-yl)piperidin-4-yl)-N,N-dimethylethan-1-amine] | 100 to 1000
12 | COc1cc2ncnc(N3CCC(CCNS(=O)(=O)C(F)(F)F)CC3)c2cc1OC [Example 146, N-(2-(1-(6,7-dimethoxyquinazolin-4-yl)piperidin-4-yl)ethyl)-1,1,1-trifluoromethanesulfonamide] | 100 to 1000
13 | COc1cc2ncnc(N3CCC(CCNS(=O)(=O)N4CCOCC4)CC3)c2cc1OC [Example 132, N-(2-(1-(6,7-dimethoxyquinazolin-4-yl)piperidin-4-yl)ethyl)morpholine-4-sulfonamide] | 100 to 1000
14 | COc1cc2nc(N(C)C)nc(N3CCC(CCNC=O)CC3)c2cc1OC [Example 118, N-(2-(1-(2-(dimethylamino)-6,7-dimethoxyquinazolin-4-yl)piperidin-4-yl)ethyl)formamide] | > 1000
15 | COc1cc2ncnc(NC(=O)c3ccc(NS(N)(=O)=O)cc3)c2cc1OC [Example 188, N-(6,7-dimethoxyquinazolin-4-yl)-4-(sulfamoylamino)benzamide] | 100 to 1000
16 | NC(=O)c1ccc2nccc(N3CCC(CCNS(N)(=O)=O)CC3)c2c1 [Example 192, 4-(4-(2-(sulfamoylamino)ethyl)piperidin-1-yl)quinoline-6-carboxamide] | > 1000
17 | COc1cc2ncnc(Nc3ccc(CNS(N)(=O)=O)cc3)c2cc1OC [Example 234, N-(4-((6,7-dimethoxyquinazolin-4-yl)amino)benzyl)sulfamide] | > 1000
18 | COc1cc2cnn(-c3ccc(CCNS(N)(=O)=O)cc3)c2cc1OC [Example 210, N-(4-(5,6-dimethoxy-1H-indazol-1-yl)phenethyl)sulfamide] | > 1000
19 | COc1cc2ncnc(N3CCC(CCNS(=O)(=O)Nc4ccccc4)CC3)c2cc1OC [Example 183] | > 1000
20 | COc1cc2ncc(Nc3ccc(NS(N)(=O)=O)cc3)nc2cc1OC [Example 286, N-(4-((6,7-dimethoxyquinoxalin-2-yl)amino)phenyl)sulfamide] | > 1000
21 | COc1cc2nccc(N(C)Cc3ccc(NS(N)(=O)=O)cc3)c2cc1OC [Example 255, N-(4-(((6,7-dimethoxyquinolin-4-yl)(methyl)amino)methyl)phenyl)s ulfamide] | > 1000
22 | COc1ccc2c(-c3ccc(CN(C4CC4)S(N)(=O)=O)cc3)ncnc2c1 [Example 324, N-cyclopropyl-N-(4-(7-methoxyquinazolin-4-yl)benzyl)sulfamide] | 100 to 1000
23 | NS(=O)(=O)NCCC1CCN(C(=O)c2ccccc2)CC1 [Example 50, N-(2-(1-(benzoyl)piperidin-4-yl)ethyl)sulfamide] | > 1000
24 | COc1ccc2c(Oc3cc(F)c(NS(N)(=O)=O)cc3F)ccnc2c1 [Example 79, N-(2,5-difluoro-4-((7-methoxyquinolin-4-yl)oxy)phenyl)sulfamide] | < 100
25 | COc1ccc2c(Oc3ccc4c(c3)CCC(=O)N4)ccnc2c1 [Example 318, 6-((7-methoxyquinolin-4-yl)oxy)-3,4-dihydroquinolin-2(1H)-one] | > 1000
26 | COc1cc2c(cc1OC)N(Cc1ccc(NS(N)(=O)=O)cc1)C(=O)CC2 [Example 173, N-(4-((6,7-dimethoxy-2-oxo-3,4-dihydroquinolin-1 (2H)-yl)methyl)phenyl) sulfamide] | > 1000
27 | COc1cc2ncnc(N3CC=C(c4ccc5c(c4)COB5O)CC3)c2cc1OC [Example 157, 5-(1-(6,7-dimethoxyquinazolin-4-yl)-1,2,3,6-tetrahydropyridin-4-yl)benzo[c][1,2] oxaborol-1(3H)-ol] | < 100

Now from value to molecule:

Row | Ki [nM] | SMILES
28 | > 1000 | COc1cc2ncnc(NCc3ccc4c(c3)OCO4)c2cc1OC [Example 336, N-(benzo[d][1,3]dioxol-5-ylmethyl)-6,7-dimethoxyquinazolin-4-amine]
29 | > 1000 | COc1cc2c(Oc3ccc(NS(N)(=O)=O)cc3)ccnc2cn1 [Example 411, N-(4-((6-methoxy-1,7-naphthyridin-4-yl)oxy)phenyl)sulfamide]
30 | 100 to 1000 | COc1ccc2c(Oc3ccc(C(=O)O)c(OC)c3)ccnc2c1 [Example 347, 2-methoxy-4-((7-methoxyquinolin-4-yl)oxy)benzoic acid]
31 | < 100 | COc1ccc2c(Oc3ccc(NS(N)(=O)=O)c(OC)c3)ccnc2n1 [Example 421, N-(2-methoxy-4-((7-methoxy-1,8-naphthyridin-4-yl)oxy)phenyl)sulfamide]
32 | < 100 | COc1cc2ncnc(NCc3ccc4c(c3)COB4O)c2cc1OC [Example 325, 5-(((6,7-dimethoxyquinazolin-4-yl)amino)methyl)benzo[c][1,2]oxa borol-1(3H)-ol]
33 | 100 to 1000 | COc1ccc2c(Oc3ccc(NS(N)(=O)=O)cc3Cl)ccnc2c1 [Example 329, N-(3-chloro-4-((7-methoxyquinolin-4-yl)oxy)phenyl)sulfamide]
34 | > 1000 | COc1ccc2c(=O)n(Cc3ccc(S(N)(=O)=O)cc3)cnc2c1 [Example 400, 4-((7-methoxy-4-oxoquinazolin-3(4H)-yl)methyl)benzenesulfonamide]
35 | > 1000 | COc1ccc2c(c1)OCCC2Oc1ccc(NS(N)(=O)=O)cc1 (centres unmarked) [Example 399, (4-((7-methoxychroman-4-yl)oxy)phenyl)sulfamide]
36 | > 1000 | COc1cc2ncnc(-c3ccc(S(N)(=O)=O)cc3)c2cc1OC [Example 333, 4-(6,7-dimethoxyquinazolin-4-yl)benzenesulfonamide]
37 | 100 to 1000 | COc1ccc2c(-c3ccc(CNS(N)(=O)=O)cc3)coc2c1 [Example 348, N-(4-(6-methoxybenzofuran-3-yl)benzyl) sulfamide]
38 | > 1000 | COc1ccc2c(c1)OCCN2c1ccc(CNS(N)(=O)=O)cc1 [Example 405, N-(4-(7-methoxy-2,3-dihydro-4H-benzo[b][1,4]oxazin-4-yl)benzyl)sulfamide]
39 | > 1000 | COc1cnc2c(-c3ccc(CNS(N)(=O)=O)cc3)ccnc2c1 [Example 369, N-(4-(7-methoxy-1,5-naphthyridin-4-yl)benzyl)sulfamide]
40 | < 100 | COc1ccc2nccc(-c3ccc4c(c3)CN(S(N)(=O)=O)CC4)c2c1 [Example 358, 7-(6-methoxyquinolin-4-yl)-3,4-dihydroisoquinoline-2(1H)-sulfonamide]
41 | > 1000 | COc1ccc2c(-c3ccc(CNS(N)(=O)=O)cc3OC)ccnc2c1 [Example 383, N-(3-methoxy-4-(7-methoxyquinolin-4-yl)benzyl)sulfamide]
